Tests used:
OXYS rats = test: Cataract and macular dystrophy in senescence-accelerated OXYS rats; format: in vivo, rat; settings: for 2nd stage of cataract / 2nd stage of macular degeneration / changes in the macular area of the retina: OXYS rats age 3 months after oral course; for eyes with lens changes: OXYS rats age 3 months after oral course from 1.5 to 3 months
Protocol: The animals were housed in cages (45*35*35 cm) and kept under standard laboratory conditions (at 22±1° C., 60% relative humidity, and natural light), provided with a standard rodent diet (PK-120-1, Ltd. ‘Laboratorsnab’, Russia), and given water ad libitum. At the age of 1.5 months after preliminary pupil dilation with 1% tropicamide ophthalmic the rats were conducted through ophthalmoscopic examination using direct ophthalmoscop “Betta”, Germany. […] We use Vitamin E for a comparison with test antioxidants. Animals received the compounds on a small piece of dried bread before a regular meal, and the control group of animals received the same piece of bread without any compound. After completing the course of antioxidants the animals were retested with ophthalmoscope. To avoid human factor in the evaluation of compound effects the researcher who conducted the ophthalmoscopic examination was not told which of the animals received antioxidants. The lens state was evaluated according to the classification system accepted in clinical practice with grades ranging from 0 to 3: score 0—the lens is clear; score 1—spotted weak cloudiness; score 2—multiple spots of cloudiness and score 3—intense cloudiness of the lens core and nucleus.

[1] = Accumulation of MitoQ in tissues when fed to animals (prior art); format: in vivo; settings: feeding to animals
Protocol: It should also be noted that despite some promising observations concerning the MitoQ action, there are several results and calculations that cast doubt on the possibility of practical application of this compound. For example, it was shown in experiments with cell culture that MitoQ provides its antioxidant and anti-apoptotic action at concentration about 1 μM in the medium. It means that MitoQ concentrations inside the mitochondria should be 1 mM provided that membrane potential is about 180 mV. On the other hand, it was shown by Smith R A, Porteous C M, Gane A M, Murphy M P, Proc Natl Acad Sci USA, 2003, 100(9):5407-12 when feeding MitoQ to animals, the accumulation of MitoQ in the most oxidative stress sensitive tissues (heart and brain) amounts up to 100 pmoles/gram, which corresponds to the MitoQ concentration inside heart mitochondria equal to 100 nM. This is more than 1000 times lower than the concentration shown to be efficient in the cell culture experiments. Formally, the concentration can be raised by the increase of amounts of MitoQ fed to animals, but this is, in fact, not possible due to the toxicity of the compound.

Hela cells [2] = tested on: Hela cells
cell culture = settings: cited from earlier work
[3] = feeding to animals; cited from earlier work
cells in culture = settings: cited from earlier work
Yarrowia lipolytica = test: Protection of yeast cells from death caused by hydrogen peroxide; format: cell-based; settings: FIG. 14; α-tocopherol 25 μM
Hela cells [4] = test: Transmission of apoptotic signal between inducer and recipient slides; format: cell-based, human; settings: 2500 E/ml added to medium for joint incubation
Protocol: HeLa cells were used in these experiments. Cells grown on a glass slide were treated with different apoptosis-inducing agents (tumor necrosis factor (TNF), staurosporine, H2O2) for 3 h. Then the glass slide with cells (inducer) was washed to remove these reagents and placed into Petri plate to come into contact with glass slide (recipient) with cells grown in the absence of any apoptosis-inducing agent. After 16-18 h of subsequent growth and staining the cells with Hoechst 33342 as described above, apoptosis at both glass slides was analyzed.
Thus the main mediator of apoptosis signal was H2O2.

[Br-].[K+] [KBr]
2nd stage of cataract (OXYS rats): 57% | 2nd stage of macular degeneration (OXYS rats): 13% | changes in the macular area of the retina (OXYS rats): 87% | eyes with lens changes (OXYS rats): 93%

COC1=C(OC)C(=O)C(CCCCCCCCCC[P+](c2ccccc2)(c2ccccc2)c2ccccc2)=C(C)C1=O [MitoQ]
corresponding concentration inside heart mitochondria [1]: 100 nM | LD50 in the presence of hydrogen peroxide (Hela cells [2]; 100 μM hydrogen peroxide): 4 µM | LD50 (concentrations at which 50% cells die) (Hela cells [2]; 2 h of incubation, no hydrogen peroxide): 7 µM | concentration in the medium giving antioxidant and anti-apoptotic action (cell culture): about 1 μM | accumulation in heart and brain [3]: up to 100 pmoles/gram

Cc1c(C)c2c(c(C)c1O)CCC(C)(CC[P+](c1ccccc1)(c1ccccc1)c1ccccc1)O2 (stereo not drawn) [MitoVitE]
concentration with no toxic effect on cells in culture (cells in culture): 10 µM | prevention of apoptosis in cultured cells (cells in culture; effect retained in the presence of uncoupler FCCP): able to prevent apoptosis in cultured cells

C[C@@H]1C[C@@H]([C@H](O)CC2CC(=O)NC(=O)C2)C(=O)[C@@H](C)C1 [cycloheximide D, reference compound]
effect on survival compared among protectants (Yarrowia lipolytica): very similar

Cc1c(C)c2c(c(C)c1O)CC[C@@](C)(CCC[C@H](C)CCC[C@H](C)CCCC(C)C)O2 [tocopherol, α-tocopherol, reference compound]
effect on survival compared among protectants (Yarrowia lipolytica): very similar

CC(=O)Oc1c(C)c(C)c2c(c1C)CCC(C)(CCC[C@H](C)CCC[C@H](C)CCCC(C)C)O2 (stereo partly drawn) [vitamin E, alfa-tocopherol acetate]
2nd stage of cataract (OXYS rats): 12% | 2nd stage of macular degeneration (OXYS rats): 8% | changes in the macular area of the retina (OXYS rats): 54% | eyes with lens changes (OXYS rats): 58%

B1: catalase: catalase (2500 E/ml) added into the medium for joint incubation (protein, UniProt P00432 2-527, looked up)
Catalase: ADNRDPASDQMKHWKEQRAAQKPDVLTTGGGNPVGDKLNSLTVGPRGPLLVQDVVFTDEMAHFDRERIPERVVHAKGAGAFGYFEVTHDITRYSKAKVFEHIGKRTPIAVRFSTVAGESGSADTVRDPRGFAVKFYTEDGNWDLVGNNTPIFFIRDALLFPSFIHSQKRNPQTHLKDPDMVWDFWSLRPESLHQVSFLFSDRGIPDGHRHMNGYGSHTFKLVNANGEAVYCKFHYKTDQGIKNLSVEDAARLAHEDPDYGLRDLFNAIATGNYPSWTLYIQVMTFSEAEIFPFNPFDLTKVWPHGDYPLIPVGKLVLNRNPVNYFAEVEQLAFDPSNMPPGIEPSPDKMLQGRLFAYPDTHRHRLGPNYLQIPVNCPYRARVANYQRDGPMCMMDNQGGAPNYYPNSFSAPEHQPSALEHRTHFSGDVQRFNSANDDNVTQVRTFYLKVLNEEQRKRLCENIAGHLKDAQLFIQKKAVKNFSDVHPEYGSRIQALLDKYNEEKPKNAVHTYVQHGSHLSAREKANL
apoptosis of recipient cells (Hela cells [4]): prevented apoptosis of recipient cells
